Values after ≈ are worked out from the molar mass of the structure shown.
Test system: P388
Assay: Cytotoxicity against mouse P388 cells
Format: functional
Conditions: read-out: ED50 (the source's name)

| SMILES | EC50 [µg/mL] |
| --- | --- |
| C=Cc1c(C)c(O)cc2c1CC[C@@H]1C(C)(C)[C@H](O)CC[C@@]21C [SPRUCEANOL] | 3.2 (≈ 10.7 µM) |
| C=C(C)[C@]12C[C@@H](C)[C@@]34O[C@](CCCCCCCCCCC)(O[C@@H]1[C@@H]3[C@@H]1O[C@]1(CO)[C@@H](O)[C@]1(O)C(=O)C(C)=C[C@H]14)O2 [MONTANIN] | 0.06 (≈ 0.107 µM) |

— ChEMBL document CHEMBL1158660, “Potential anticancer agents. XIV. Isolation of spruceanol and montanin from Cunuria spruceana (Euphorbiaceae)” (1979)
